Measured values published in patent US9073863B2, “Cyanoquinoline compounds having activity in correcting mutant-CFTR processing and increasing ion transport and uses thereof” (The Regents of the University of California, priority 2011, dated 2015).

Legend:
ΔF508-CFTR [1] = target: T1, ΔF508-CFTR (Homo sapiens, UniProt P13569, DEL508-508); experiment: Corrector assay, YFP fluorescence plate reader iodide influx in ΔF508-CFTR expressing FRT cells; type: cell-based; settings: for Corrector Vmax / EC50 / Corrector EC50: 18-24 h with compound at 37° C., forskolin 20 μM + genistein 50 μM; for corrector and potentiator activities, in words: concentration-dependence in corrector and potentiator I− influx assays (FIG. 2, FIG. 7)
T1 construct: expressed in transfected cells; host or cells: Fischer rat thyroid (FRT) epithelial cells, stably transfected
T1 sequence (P13569 with tags, fused parts or gaps DEL508-508): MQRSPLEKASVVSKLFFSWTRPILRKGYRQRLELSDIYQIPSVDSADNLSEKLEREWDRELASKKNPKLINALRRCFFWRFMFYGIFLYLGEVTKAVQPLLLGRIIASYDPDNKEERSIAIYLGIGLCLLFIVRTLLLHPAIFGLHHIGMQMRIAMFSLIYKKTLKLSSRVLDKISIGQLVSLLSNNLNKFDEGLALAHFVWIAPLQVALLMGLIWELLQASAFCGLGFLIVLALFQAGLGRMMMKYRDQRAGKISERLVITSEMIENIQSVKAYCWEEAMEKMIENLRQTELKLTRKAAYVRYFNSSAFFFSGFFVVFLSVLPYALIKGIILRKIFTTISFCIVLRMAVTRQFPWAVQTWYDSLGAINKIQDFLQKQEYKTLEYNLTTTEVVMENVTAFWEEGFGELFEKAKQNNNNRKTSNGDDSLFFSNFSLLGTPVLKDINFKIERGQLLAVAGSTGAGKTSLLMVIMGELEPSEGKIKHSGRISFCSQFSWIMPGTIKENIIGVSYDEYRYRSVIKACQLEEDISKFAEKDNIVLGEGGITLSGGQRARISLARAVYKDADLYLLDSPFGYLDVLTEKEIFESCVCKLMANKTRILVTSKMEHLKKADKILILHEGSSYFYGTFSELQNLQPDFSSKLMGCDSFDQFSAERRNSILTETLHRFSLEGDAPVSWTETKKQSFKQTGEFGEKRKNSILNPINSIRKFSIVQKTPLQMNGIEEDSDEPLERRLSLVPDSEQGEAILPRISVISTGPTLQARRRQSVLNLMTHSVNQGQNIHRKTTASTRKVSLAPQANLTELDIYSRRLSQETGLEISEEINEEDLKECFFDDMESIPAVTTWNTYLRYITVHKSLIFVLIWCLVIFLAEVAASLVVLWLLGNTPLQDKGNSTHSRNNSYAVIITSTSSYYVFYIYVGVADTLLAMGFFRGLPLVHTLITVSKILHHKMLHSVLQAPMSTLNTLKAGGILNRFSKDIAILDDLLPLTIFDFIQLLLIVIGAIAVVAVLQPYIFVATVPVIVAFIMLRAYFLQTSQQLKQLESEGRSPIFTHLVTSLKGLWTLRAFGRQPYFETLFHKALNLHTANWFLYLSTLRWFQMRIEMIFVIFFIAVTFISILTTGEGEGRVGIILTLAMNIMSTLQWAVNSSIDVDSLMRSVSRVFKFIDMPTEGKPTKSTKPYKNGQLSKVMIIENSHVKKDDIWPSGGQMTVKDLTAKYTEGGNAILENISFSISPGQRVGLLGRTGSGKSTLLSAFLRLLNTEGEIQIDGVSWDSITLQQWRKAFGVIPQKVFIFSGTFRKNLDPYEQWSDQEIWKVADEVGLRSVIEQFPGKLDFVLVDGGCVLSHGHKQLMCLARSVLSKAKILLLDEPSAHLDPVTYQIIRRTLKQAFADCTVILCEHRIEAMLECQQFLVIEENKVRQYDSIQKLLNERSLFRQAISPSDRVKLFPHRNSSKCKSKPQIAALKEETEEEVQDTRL
Description: (§1) Screening procedures. Screening of compounds for activity was carried out using a Beckman Coulter platform equipped with FLUOstar fluorescence plate readers (Optima; BMG Labtech) with dual syringe pumps and 500±10 nm excitation and 535±15 nm emission filters (Chroma Corp.). For the corrector assay, FRT cells were grown at 37° C./5% CO2 for 18-24 h and then incubated for 18-24 h with 100 μL of medium containing test compounds (25 μM final concentration). At the time of the assay, cells were washed with PBS and then incubated for 10 min with PBS containing forskolin (20 μM) and genistein (50 μM). For the potentiator assay, FRT cells were grown at 37° C./5% CO2 for 18-24 h and then for 18-24 h at 27° C. At the time of the assay, cells were washed with PBS and then incubated for 10 min with PBS (50 μL) containing forskolin (20 μM) and test compound (0-25 μM final concentration). For both the corrector and potentiator assays, each well was assayed individually for I^− influx by recording fluorescence continuously (200 ms per point) for 2 s (baseline) and then for 12 s after rapid addition of 165 μL PBS in which 137 mM Cl^− was replaced by I^−. Initial I^− influx rate was computed by fitting the final 11.5 seconds of the data to an exponential for extrapolation of initial slope, which was normalized for background-subtracted initial fluorescence. All compound plates contained negative controls and positive controls (10 μM Corr-4a for corrector assay; 50 μM genistein for potentiator assay).
(§2) Screening of about 110,000 small molecules was done to identify new ΔF508-CFTR corrector scaffolds having high correction efficiency and/or having independent potentiator activity. […] FRT cells co-expressing human ΔF508-CFTR and a halide-sensing YFP were incubated with test compounds at 37° C. (corrector assay) or 27° C. (potentiator assay). ΔF508-CFTR function was assayed in a plate reader from YFP fluorescence quenching in response to iodide addition in the presence of forskolin (20 μM) plus genistein (50 μM) for corrector assay, or forskolin (20 μM) alone for potentiator assay. As shown in FIG. 1A (left), primary screening for corrector activity was done using a cell-based fluorescence assay of iodide influx in which FRT cells expressing ΔF508-CFTR and an iodide-sensitive YFP were incubated with test compounds at 10 μM for 18-24 h prior to assay. Iodide influx was measured by addition of extracellular iodide in the presence of a potentiator (50 μM genistein) and cAMP agonist (20 μM forskolin). Compound efficacy and potency (from concentration-dependence studies) in the corrector assay were compared to reference bithiazole Corr-4a (10 μM) and to low-temperature rescued cells. Active compounds were counter-screened for potentiator activity (FIG. 1A, right) in which iodide influx was measured in the ΔF508-CFTR expressing FRT cells after low-temperature rescue and in the presence of 20 μM forskolin.
(§3) Screening procedures. Plate reader activity assay was carried out using a Beckman Coulter platform containing a robotic arm, CO2 incubator containing microplate carousel, plate-washer, liquid handling work station, bar code reader, de-lidding station, plate sealer, and FLUOstar fluorescence plate readers (Optima; BMG LABTECH Gmbh), equipped with dual syringe pumps and 500±10 nm excitation and 535±15 nm emission filters (Chroma Corp.). For the corrector assay, ΔF508-CFTR-expressing FRT cells were grown at 37° C. (90% humidity; 5% CO2) for 18-24 h and then incubated for 18-24 h with 100 μL of medium containing test compounds (0-25 μM final concentration). At the time of the assay, cells were washed with PBS and then incubated for 10 min with PBS containing forskolin (20 μM) and genistein (50 μM). For the potentiator assay, FRT cells were grown at 37° C. (90% humidity; 5% CO2) for 18-24 h and then for 18-24 h at 27° C. […]

ΔF508-CFTR [2] = target: T1, ΔF508-CFTR; experiment: Potentiator assay, YFP fluorescence plate reader iodide influx in low-temperature rescued ΔF508-CFTR expressing FRT cells; type: cell-based; settings: for Potentiator Vmax / EC50 / Potentiator EC50: forskolin 20 μM + test compound; for potentiator activity, in words: piperazine ring in place of diamino ethylene tether
Description: as §1, §2, §3

[3] = Table VIII, FRT cells, I− influx
[4] = Table VIII, FRT cells 18-24 h at 27° C., I− influx
[5] = Table IX, additional experiments
[6] = Table IX, additional experiments, 18-24 h at 27° C.

| Corrector Vmax (ΔF508-CFTR [1]; [3]) | Potentiator Vmax (ΔF508-CFTR [2]; [4]) | EC50 (ΔF508-CFTR [2]; [4]) | Corrector Vmax (ΔF508-CFTR [1]; [5]) | EC50 (ΔF508-CFTR [1]; [5]) | Potentiator Vmax (ΔF508-CFTR [2]; [6]) | SMILES | further results |
| --- | --- | --- | --- | --- | --- | --- | --- |
| inactive | 80 µM/s | – | – | – | – | Cc1cc(C)c2cc(C#N)c(NCCNC(=O)c3ccccn3)nc2c1 [drawing 149] | – |
| 228 µM/s | 289 µM/s | 14 µM | – | – | – | Cc1cc(C)c2cc(C#N)c(NCCNC(=O)c3cccs3)nc2c1 [drawing 139] | EC50 (ΔF508-CFTR [1]; [3]): 14 µM |
| – | – | – | 61 µM/s | 8.2 ± 0.4 µM | 53 µM/s | Cc1cc(C)c2cc(C#N)c(NCCCNC(=O)c3ccncc3)nc2c1 [drawing 181] | EC50 (ΔF508-CFTR [2]; [6]): 13.2 ± 0.4 µM |
| – | – | – | inactive | – | 210 µM/s | Cc1cc(C)c2cc(C#N)c(NCCNC(=O)c3ccccc3)nc2c1 | EC50 (ΔF508-CFTR [2]; [6]): 10 ± 2 µM |
| – | – | – | 111 µM/s | 3.7 ± 0.6 µM | 119 µM/s | COc1cccc(OC)c1C(=O)NCCNc1nc2cc(C)cc(C)c2cc1C#N | EC50 (ΔF508-CFTR [2]; [6]): 11.5 ± 1 µM |
| 300 µM/s | 306 µM/s | – | – | – | – | COc1cccc(C(=O)NCCNc2nc3cc(C)cc(C)c3cc2C#N)c1 [drawing 146] | – |
| – | – | – | inactive | – | 80 µM/s | Cc1cc(C)c2cc(C#N)c(NCCNC(=O)c3ccccn3)nc2c1 [drawing 167] | Corrector EC50 (ΔF508-CFTR [1]; [5]): inactive; EC50 (ΔF508-CFTR [2]; [6]): 1.2 ± 0.4 µM |
| – | – | – | 174 µM/s | 6.7 ± 1 µM | inactive | Cc1cc(C)c2cc(C#N)c(NCCNC(=O)c3cnccn3)nc2c1 | – |
| – | – | – | inactive | – | inactive | Cc1cc(C)c2cc(C#N)c(N3CCN(C(=O)c4ccncc4)CC3)nc2c1 | Corrector EC50 (ΔF508-CFTR [1]; [5]): inactive; Potentiator EC50 (ΔF508-CFTR [2]; [6]): inactive |
| 172 µM/s | 220 µM/s | – | – | – | – | Cc1cc(C)c2cc(C#N)c(NCCNC(=O)c3ccncc3)nc2c1 [drawing 151] | EC50 (ΔF508-CFTR [1]; [3]): 9.1 µM |
| – | – | – | inactive | – | 233 µM/s | Cc1cc(C)c2cc(C#N)c(NCCCNC(=O)c3ccccn3)nc2c1 [drawing 179] | – |
| – | – | – | 114 µM/s | 11 ± 0.9 µM | 154 µM/s | COc1ccccc1C(=O)NCCNc1nc2cc(C)cc(C)c2cc1C#N [drawing 165] | – |
| 140 µM/s | 195 µM/s | 11 µM | – | – | – | COc1ccc2nc(N3CCN(C(=O)c4ccccc4F)CC3)c(C#N)cc2c1 | EC50 (ΔF508-CFTR [1]; [3]): 4.2 µM |
| – | – | – | 151 µM/s | 2.7 ± 0.6 µM | 242 µM/s | Cc1cc(C)c2cc(C#N)c(NCCNC(=O)c3cccnc3)nc2c1 [drawing 168] | EC50 (ΔF508-CFTR [2]; [6]): 13.2 ± 0.6 µM |
| – | – | – | 112 µM/s | 4.3 ± 0.2 µM | 231 µM/s | COc1ccc(C(=O)NCCCNc2nc3cc(C)cc(C)c3cc2C#N)cc1 [drawing 178] | – |
| – | – | – | 134 µM/s | – | 147 µM/s | COc1cccc(C(=O)NCCCNc2nc3cc(C)cc(C)c3cc2C#N)c1 [drawing 177] | – |
| – | – | – | – | – | – | COc1ccccc1C(=O)N1CCN(c2nc3cc(C)cc(C)c3cc2C#N)CC1 [Compound AW1] | corrector and potentiator activities, in words (ΔF508-CFTR [1]): potentiator-only activity; potentiator activity, in words (ΔF508-CFTR [2]): significant potentiator activity |
| inactive | 235 µM/s | 5 µM | – | – | – | COc1ccc2nc(N3CCN(C(=O)c4ccccc4Br)CC3)c(C#N)cc2c1 | Corrector EC50 (ΔF508-CFTR [1]; [3]): inactive |

| Corrector Vmax (ΔF508-CFTR [1]; [3]) | Potentiator Vmax (ΔF508-CFTR [2]; [4]) | EC50 (ΔF508-CFTR [2]; [4]) | Corrector Vmax (ΔF508-CFTR [1]; [5]) | EC50 (ΔF508-CFTR [1]; [5]) | Potentiator Vmax (ΔF508-CFTR [2]; [6]) | SMILES | further results |
| --- | --- | --- | --- | --- | --- | --- | --- |
| 102 µM/s | 72 µM/s | 3.8 µM | – | – | – | COc1ccc(S(=O)(=O)N2CCN(c3nc4ccc(C)cc4cc3C#N)CC2)cc1 [drawing 140] | EC50 (ΔF508-CFTR [1]; [3]): 5 µM |
| – | – | – | 108 µM/s | 4.2 ± 0.4 µM | 426 µM/s | COc1ccc(C(=O)NCCNc2nc3cc(C)cc(C)c3cc2C#N)c(OC)c1 | EC50 (ΔF508-CFTR [2]; [6]): 55 ± 3.5 µM |
| – | – | – | inactive | – | 254 µM/s | COc1ccccc1C(=O)NCCCNc1nc2cc(C)cc(C)c2cc1C#N | EC50 (ΔF508-CFTR [2]; [6]): 27.6 ± 2 µM |
| – | – | – | – | – | – | COc1ccc(C(=O)N2CCN(c3nc4cc(C)cc(C)c4cc3C#N)CC2)cc1 [Compound AW3] | corrector and potentiator activities, in words (ΔF508-CFTR [1]): potentiator-only activity; potentiator activity, in words (ΔF508-CFTR [2]): significant potentiator activity |
| 134 µM/s | 147 µM/s | 4.6 µM | – | – | – | COc1cccc(C(=O)NCCCNc2nc3cc(C)cc(C)c3cc2C#N)c1 [drawing 159] | – |
| 281 µM/s | 297 µM/s | 15 µM | – | – | – | COc1ccc(C(=O)NCCNc2nc3ccc(C)cc3cc2C#N)cc1OC [drawing 138] | EC50 (ΔF508-CFTR [1]; [3]): 3.9 µM |
| – | – | – | 176 µM/s | 7.3 ± 0.8 µM | 220 µM/s | Cc1cc(C)c2cc(C#N)c(NCCNC(=O)c3ccncc3)nc2c1 [drawing 169] | EC50 (ΔF508-CFTR [2]; [6]): 10 ± 3.1 µM |
| – | – | – | 140 µM/s | 3 ± 0.5 µM | 115 µM/s | Cc1cc(C)c2cc(C#N)c(NCCCNC(=O)c3cccnc3)nc2c1 [drawing 180] | – |
| inactive | 261 µM/s | 13 µM | – | – | – | COc1ccc2nc(N3CCN(C(=O)c4ccccc4Cl)CC3)c(C#N)cc2c1 | Corrector EC50 (ΔF508-CFTR [1]; [3]): inactive |
| inactive | 115 µM/s | 16 µM | – | – | – | Cc1cc(C)c2cc(C#N)c(NCCCNC(=O)c3cccnc3)nc2c1 [drawing 162] | Corrector EC50 (ΔF508-CFTR [1]; [3]): inactive |
| 114 µM/s | 154 µM/s | 2.3 µM | – | – | – | COc1ccccc1C(=O)NCCNc1nc2cc(C)cc(C)c2cc1C#N [drawing 147] | – |
| – | – | – | 88 µM/s | 2.7 ± 0.5 µM | 70 µM/s | COc1ccc(C(=O)NCCNc2nc3cc(C)cc(C)c3cc2C#N)nc1 [drawing 186] | EC50 (ΔF508-CFTR [2]; [6]): 3.4 ± 0.5 µM |
| inactive | 275 µM/s | 6 µM | – | – | – | CCOc1ccccc1NC(=S)NCCNc1nc2c(C)cccc2cc1C#N [drawing 144] | Corrector EC50 (ΔF508-CFTR [1]; [3]): inactive |
| – | – | – | inactive | – | inactive | Cc1cc(C)c2cc(C#N)c(N3CCN(C(=O)c4cccnc4)CC3)nc2c1 [drawing 174] | Corrector EC50 (ΔF508-CFTR [1]; [5]): inactive; Potentiator EC50 (ΔF508-CFTR [2]; [6]): inactive |
| 172 µM/s | 181 µM/s | 4.1 µM | – | – | – | COc1ccc(C(=O)NCCNc2nc3cc(C)cc(C)c3cc2C#N)cc1 [drawing 148] | EC50 (ΔF508-CFTR [1]; [3]): 3 µM |
| inactive | 200 µM/s | 1.2 µM | – | – | – | COc1cccc(C(=O)N2CCN(c3nc4cc(C)cc(C)c4cc3C#N)CC2)c1 [drawing 153] | – |
| – | – | – | 380 µM/s | 1.5 ± 0.4 µM | 216 µM/s | COc1ccc(C(=O)NCCNc2nc3cc(C)cc(C)c3cc2C#N)cc1OC [drawing 185] | EC50 (ΔF508-CFTR [2]; [6]): 48 ± 5 µM |
| 223 µM/s | 250 µM/s | 15 µM | – | – | – | COc1ccc(C(=O)NCCNc2nc3c(C)cccc3cc2C#N)cc1OC [drawing 137] | EC50 (ΔF508-CFTR [1]; [3]): 3.8 µM |
